Values belong to the compound of their own block, whether it stands above or below them.
Key:
[1] = test system: HT-29 cells; experiment: Primary (1°) colonosphere formation assay, HT-29 (Screen 1); format: cell-based, human
Experimental: (§1) Primary (1°) Colonosphere Formation Assay. For primary sphere formation, cells were plated in non-treated, low adhesion, 96 wells plate at the concentration of 100 cells/100 μL/well in stem cell media (SCM) that consisted of DMEM:F12:AA (Gibco), supplemented with 1×B27 (Gibco), 20 ng/mL epidermal growth factor and 10 ng/mL fibroblast growth factor (Sigma). After four hour of incubation, vehicle (control) or NSGM at the desired concentrations were added to each well (at least in triplicates for each sample). On day five, numbers of spheres ranging from […] in diameter were counted using phase contrast microscope and percent inhibition was calculated compared to control.
(§2) In this screen, sulfated NSGMs that inhibit HT-29 growth under spheroid conditions, but not under monolayer conditions, were then assessed for retention of 2° and 3° spheroid growth inhibition profiles in the absence of NSGM. The latter screen is of particular importance as primary spheroid growth although selective for CSCs doses not distinguish between non self-renewing progenitors and self-renewing CSCs. […] These 11 NSGMs belonged to G2, G4, G11 and G12 scaffolds but only four of the six G2 molecules, one of the two G4, four of the seven G11 and two of the five G12 molecules satisfied the first screen.

[2] = test system: CSC markers CD44, CD133, EpCAM, LGR5, CXCR-4; experiment: Western blot of CSC markers in HT-29 spheroids; format: cell-based, human; conditions: 100 μM; for reduction of expression of CSC markers (CD44, CD133, EpCAM, LGR5, CXCR-4): HT-29 spheroids, Western blot densitometry vs vehicle
Experimental: (§3) Western Blotting Analysis. Western blot analysis was performed according to the standard protocol described in the literature. Briefly, HT-29 cells were plated in serum-free SCM in a low adhesion 6-well plate to obtain spheroids. Mature spheroids were treated on day 4 after plating, with vehicle or NSGMs for indicated time and cells were solubilized in lysis buffer (20 mM Na3PO4, 100 mM NaCl, 2 mM EDTA, 1% Nonidet P-40, 2.5 mM Na3VO4) containing protease (Roche) as well as phosphatase inhibitor cocktails (Sigma). Following centrifugation at 14,000 g for 15 min, the supernatant was used for Western blot analysis. In all analyses, protein concentration was determined by the Bio-Rad Protein Assay kit (Bio-Rad). Approximately 25-50 μg of protein was separated by polyacrylamide gel electrophoresis and was transferred to PVDF membrane (Bio-Rad). Blocking was done with 5% low fat milk powder for 1 hr followed by overnight incubation with primary antibody (dilution 1:1000): anti-CD44 (Cell Signaling), anti-EpCAM (Cell Signaling), anti-LGR5 (Origene), anti-CD133 ((Miltenyi Biotec), anti-CXCR4 (Abeam), anti-OCT4 (Cell Signaling), anti-BMI-1 (Millipore), anti-c-MYC (Millipore) and anti-CK20 (Abeam). This was followed by incubation with appropriate secondary antibody and protein bands were visualized using the enhanced chemiluminescence detection system and imaged with LAS-3000 Imaging System (FUJIFILM). Densitometry was determined by AIDA image analyzer software (Raytest) and results were calculated as relative intensity compared to control. All experiments were performed at least three times.

[3] = test system: LGR5; experiment: Flow cytometry analysis of CSC markers in HT-29 spheroids; format: cell-based, human; conditions: 100 μM, vs vehicle-treated controls
Experimental: Flow Cytometry Analysis. Human colon cancer HT-29 cells, grown in spheroid or monolayer condition were treated with vehicle or NSGMs for 24 hours, were trypsinized and single cells were re-suspended at 10^6 cells/mL in PBS buffer. Cells were incubated with fluorophore conjugated antibody for 30 minutes at 4° C. and washed once with PBS buffer prior to analysis. Following antibody and dilution were used: LGR5-PE) (Dilution 1:50, Origene), DCLK1 (Dilution 1:33, Abeam). Cell sorting was performed using FACSAria™ II High-Speed Cell Sorter (BD Biosciences) and data were analyzed with FCS Express 4 Flow Cytometry software (De-Novo Software).

[4] = test system: self-renewal factors OCT4, BMI-1, c-MYC; experiment: Western blot of self-renewal factors in spheroids; format: cell-based, human; conditions: 100 μM, HT-29
Experimental: as §3

[5] = test system: HCT-116 cells, grown in spheroid condition; experiment: Apoptosis assay (annexin V/propidium iodide and acridine orange/ethidium bromide); format: cell-based, human; conditions: for induction of apoptosis in spheroid cells: annexin V labeling and acridine orange/ethidium bromide staining, 100 μM, 24 hours, vs vehicle
Experimental: Apoptosis Assay. Human colon cancer HCT-116 cells, grown in spheroid condition were treated with vehicle or NSGMs for 24 hours. Following which cells were trypsinized and single cells were re-suspended at 10^6 cells/mL in PBS buffer. Two different methods were used to assess apoptosis induction. In the first methods, cells were incubated with propidium iodide and Annexin V-APC (ebioscience) and flow cytometric analyses were performed as above. […] Briefly, a small volume of cell suspension was mounted on a glass slide and incubated with 1 μl of AO/EB solution and mixed gently just prior to microscopy and quantification. At least 500 cells in 10-15 fields were examined in each sample using Nikon ECLIPSE E800M fluorescence microscope using 20× objective. […] The data was expressed as apoptosis index=[([apoptotic cells (NSGMs)/total cells (NSGMs)]/[apoptotic cells (vehicle)/total cells (vehicle)]).

[6] = test system: HCT-116; experiment: Primary spheroid formation assay, HCT-116; format: cell-based, human; conditions: HCT-116 (p53 null)
Experimental: as §1, §2

[7] = test system: Panc-1 (pancreatic) cancer cell lines; experiment: Primary spheroid formation assay, Panc-1; format: cell-based, human
Experimental: as §1

[8] = test system: HT-29 cell line; experiment: MTT cell proliferation assay, monolayer growth; format: cell-based, human; conditions: monolayer conditions
Experimental: Cell Proliferation Assay. Cell proliferation was evaluated by (3-(4,5-dimethylthiazol-2-yl)-2,5-diphenyltetrazolium bromide) MTT cell proliferation assay. For HT-29 cell line approximately 2.5×10^3 cells/100 μL/well were plated in 96-well tissue culture treated plate. After overnight incubation at 37° C. vehicle (control) or NSGM was added at the desired concentration and the cells were further incubated for 60-72 h. At the end of the incubation, 10 μL of 5 mg/mL MTT solution (Sigma) made in phosphate buffered saline (PBS) (Gibco) was added to each well and incubated for minimum of 2 to 3 hr until crystals formation was observed. Following this, 150 μL of 4 mM HCl (Sigma) in isopropanol solution was added drop wise to each well and the mixture was triturated until the crystals dissolve completely. Finally, the plate was placed on the spectrophotometer reader and read at 590 nm and growth inhibition was calculated as percent of control.

[9] = test system: CSC markers mRNA; experiment: Real-time PCR of CSC marker mRNA; format: cell-based, human; conditions: 6 hours following treatment
Experimental: Real-Time PCR Analysis. Total RNA was isolated using the mirVana™ miRNA Isolation Kit (Life technologies, Grand Island, N.Y.). 1 μg total RNA was reverse transcribed using First-Strand cDNA Synthesis Kit using hexamer reverse primer (Affymetrix). Real time QPCR was performed using RT^2 SYBR® Green qPCR Master mix (Qiagen) in a 7500 fast real time machine (Applied Biosystem). Relative expressions of mRNA were calculated using ΔΔCT methods using GAPDH as a loading control.

[10] = test system: CK20; experiment: Differentiation assay (CK20 expression) in colonosphere cells; format: cell-based, human; conditions: spheroid cells on collagen, 2.5% serum, Western blot and immunocytochemistry
Experimental: Differentiation Assay. Single cell suspension from mature HT-29 colonosphere pre-treated with vehicle or G2.2 for 24 hours were plated on collagen coated glass cover slips or flasks in the presence of media supplemented with 2.5% FBS containing G2.2 or vehicle. At indicated time points, cells lysate was examined for CK-20 expression with western-blot as above. Alternatively, cells were fixed with 4% paraformaldehyde for 20 minutes at room temperature, permeabilized for 5 min in 0.5% Triton X-100 solution and blocked in PBS containing 1% BSA for one hour prior to incubation with anti-CK-20 antibody (Abeam) for 2 hours. Cells were then washed, incubated for 60 min with Alexa Fluor conjugate secondary antibodies, rinsed with blocking buffer and mounted on slides with DAPI containing ProLong® Gold Antifade Reagent (Invitrogen). Fluorescently labeled cells were examined using a Zeiss LSM700 laser scanning confocal microscope (Zeiss Micro imaging Inc.). Alexa Flour® 555 signals were imaged sequentially at 40× magnification in frame-interlaced mode to eliminate cross talk between channels.

[11] = test system: HT-29 colon cancer cells; experiment: Cell cycle distribution in spheroid cells; format: cell-based, human; conditions: 24 hours, 100 μM, vs vehicle
[12] = test system: HCT116 cells; experiment: Mice tumor xenograft model, intratumoral G2.2; format: in vivo, NOD-SCID mice
Experimental: One million HCT116 cells were washed with PBS and injected subcutaneously (0.2 mL cell suspension in 50% matrigel) into 6-week-old NOD-SCID mice (Taconic Incorporation, Germantown, N.Y.) on both flanks. Once the tumors become palpable, 16 mice were randomized into two groups. In the treatment group, animals received direct intratumoral (IT) injection of appx 1.125 mg of G2.2 dissolved in 75 μl PBS (pH=7.4) solution three times a week for three weeks (a total of 10 mg of G2.2 over three weeks). Control animals were also received IT injection with 75 μl of vehicle alone (PBS) on the same schedule. Tumor size was measured three times a week using caliber and tumor volume was calculated as previously described. Mice were also weighed three times a week. All the animals were sacrificed within 1 week after completion of therapy using approved method of CO2 asphyxiation. Tumor xenografts were minced with scalpels blade into small pieces and then digested in DMEM/F12 medium containing 300 units/mL collagenase (Stem Cell Technologies) and 100 units/mL hyaluronidase (Stem Cell Technologies) for 1 hr at 37° C. Cells were then washed and re-suspended to a final concentration of 10^6 cell/mL in DMEM/2% FBS. Cell suspensions from the tumor samples were incubated with PE conjugated LGR5 or CXCR4 antibody for 30 minutes and washed two times with PBS buffer and then analyzed (FIG. 18A-B). […] However, none of these values were statistically significant (p>0.1).

[13] = Animal weight in mice tumor xenograft model; format: in vivo, NOD-SCID mice; conditions: intratumoral, appx 1.125 mg three times a week for three weeks
Experimental: One million HCT116 cells were washed with PBS and injected subcutaneously (0.2 mL cell suspension in 50% matrigel) into 6-week-old NOD-SCID mice (Taconic Incorporation, Germantown, N.Y.) on both flanks. Once the tumors become palpable, 16 mice were randomized into two groups. In the treatment group, animals received direct intratumoral (IT) injection of appx 1.125 mg of G2.2 dissolved in 75 μl PBS (pH=7.4) solution three times a week for three weeks (a total of 10 mg of G2.2 over three weeks). Control animals were also received IT injection with 75 μl of vehicle alone (PBS) on the same schedule. Tumor size was measured three times a week using caliber and tumor volume was calculated as previously described. Mice were also weighed three times a week. All the animals were sacrificed within 1 week after completion of therapy using approved method of CO2 asphyxiation. Tumor xenografts were minced with scalpels blade into small pieces and then digested in DMEM/F12 medium containing 300 units/mL collagenase (Stem Cell Technologies) and 100 units/mL hyaluronidase (Stem Cell Technologies) for 1 hr at 37° C. Cells were then washed and re-suspended to a final concentration of 10^6 cell/mL in DMEM/2% FBS. Cell suspensions from the tumor samples were incubated with PE conjugated LGR5 or CXCR4 antibody for 30 minutes and washed two times with PBS buffer and then analyzed (FIG. 18A-B). […]

[14] = compared to vehicle treated xenografts, flow cytometry

Structure (SMILES): O=c1cc(-c2ccc(OS(=O)(=O)O)c(OS(=O)(=O)O)c2)oc2cc(OS(=O)(=O)O)cc(OS(=O)(=O)O)c12 [G1.4]
Screen 1 outcome (spheroid versus monolayer growth inhibition) ([1]; 100 μM): completely failed
reduction of expression of CSC markers (CD44, CD133, EpCAM, LGR5, CXCR-4) [2]: no effect
reduction in LGR5 (hi) cells [3]: < 15%
BMI-1 expression [4]: no such changes
c-MYC expression [4]: no such changes
induction of apoptosis in spheroid cells [5]: no such effects

IC50 ([1]; steep dose-response profile, read-out: apparent IC50 for primary spheroid inhibition): ~58 µM
overall animal weight [13]: no effect
Structure (SMILES): O=c1c(OS(=O)(=O)[O-])c(-c2ccc(OS(=O)(=O)[O-])c(OS(=O)(=O)[O-])c2)oc2cc(OS(=O)(=O)[O-])cc(OCCCOc3cc(OS(=O)(=O)[O-])cc4oc(-c5ccc(OS(=O)(=O)[O-])c(OS(=O)(=O)[O-])c5)c(OS(=O)(=O)[O-])c(=O)c34)c12.[Na+].[Na+].[Na+].[Na+].[Na+].[Na+].[Na+].[Na+] [G2.2]
inhibition of spheroid formation, potency relative to HT-29 [6]: essentially identical potency
inhibition of spheroid formation, potency relative to HT-29 [7]: essentially identical potency
inhibition of monolayer growth (bulk tumor cells) [8]: minimal effect
protein expression of CSC markers (LGR5, CXCR4) ([2]; 6 hours): minimal change
protein expression of CSC markers (LGR5, CXCR4) ([2]; 24 hours): significant decrease
reduction of expression of CSC markers (CD44, CD133, EpCAM, LGR5, CXCR-4) [2]: 25-55%
reduction in LGR5 (hi) cells [3]: 39%
mRNA levels of several CSC markers [9]: marked decrease
CK20 expression (colonic differentiation marker) [10]: modest induction
BMI-1 expression [4]: significant inhibition
OCT-4 levels [4]: little effect
c-MYC expression [4]: significant inhibition
induction of apoptosis in spheroid cells [5]: 2 to 3 fold
induction of apoptosis in CSC-poor monolayer counterparts ([5]; monolayer cells): did not induce apoptosis
proportion of spheroid cells in G1 phase (cell cycle progression) [11]: small increase
reduction in tumor volume ([12]; between days 5-19, intratumoral, not statistically significant (p>0.1)): 20-42%
attenuation of CXCR4 positive cells in xenografts [12, 14]: ~75%
attenuation of LGR5 positive cells in xenografts [12, 14]: ~78%

From US9850221B2, “Sulfated and unsulfated flavonoid oligomers as cancer therapeutics” (VIRGINIA COMMONWEALTH UNIVERSITY, priority 2013, dated 2017)
